From US20110118347A1, “TREATMENT Of RINGWORM” (Vernolix Limited, priority 2008, published 2011)

Assays:
[1] = system: T. tonsurans; assay: Screen for activity against fungal lawns of T. tonsurans; assay type: cell-based, Trichophyton tonsurans
[2] = Penetration of compounds of Formula I into mammalian skin (living pig skin); assay type: in vitro ADME; conditions: 5% by wt in lanolin-based cream, applied to outer surface of living pig skin, after one hour
Text: The formulation may be applied to the outer surface of a section of living pig skin.

**Q.** Which results are given for CCCCCC(O)C(O)CC=CCCCCCCCC(=O)O (centres unmarked) [Compound (iv), 12,13-dihydroxyoctadec-9-enoic acid]?
**A.** fungicidal activity against fungal lawns of T. tonsurans [1]: effective fungicidal activity; penetration of the active compounds into the dermis and epidermis [2]: a significant amount of compounds (i) and (iv) has penetrated the dermis
